Data published in patent publication US8193237B2, “Indole derivative having IκB kinase β inhibitory activity” (Santen Pharmaceutical Co., Ltd., priority 2007, dated 2012).

biological target: T1, IKKβ (Homo sapiens, UniProt O14920); experiment: IKKβ inhibition assay by fluorescence polarization (IMAP kit); assay type: biochemical; settings: test compound at 1 μM; inhibition rate exceeding 100% is indicated as 100%
T1 construct: purchased Upstate Biotechnology Inc. 14-485
T1 sequence (O14920 1-756): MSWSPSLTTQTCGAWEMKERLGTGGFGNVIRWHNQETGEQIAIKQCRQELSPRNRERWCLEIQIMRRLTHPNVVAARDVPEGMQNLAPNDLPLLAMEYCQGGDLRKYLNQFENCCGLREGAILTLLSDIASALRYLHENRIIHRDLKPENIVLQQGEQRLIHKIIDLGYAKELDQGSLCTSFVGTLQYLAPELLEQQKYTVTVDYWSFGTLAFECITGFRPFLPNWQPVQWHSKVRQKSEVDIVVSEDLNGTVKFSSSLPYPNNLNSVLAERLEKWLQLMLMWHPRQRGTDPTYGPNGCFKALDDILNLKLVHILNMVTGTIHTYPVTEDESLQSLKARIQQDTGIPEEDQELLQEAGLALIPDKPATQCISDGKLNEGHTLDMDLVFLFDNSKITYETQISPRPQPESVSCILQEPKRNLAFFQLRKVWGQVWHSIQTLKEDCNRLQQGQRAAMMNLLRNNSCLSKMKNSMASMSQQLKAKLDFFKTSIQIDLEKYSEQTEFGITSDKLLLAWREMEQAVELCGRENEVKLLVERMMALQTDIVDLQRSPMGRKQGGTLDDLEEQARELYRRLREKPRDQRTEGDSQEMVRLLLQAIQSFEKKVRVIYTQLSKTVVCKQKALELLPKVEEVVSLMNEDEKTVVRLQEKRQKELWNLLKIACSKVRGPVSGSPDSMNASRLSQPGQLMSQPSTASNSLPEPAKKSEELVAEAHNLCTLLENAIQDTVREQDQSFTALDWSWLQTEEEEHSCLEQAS
Procedure: In order to evaluate IKKβ inhibitory activity of the present compounds, an IKKβ inhibition assay by the fluorescence polarization method was conducted.
The assay was conducted using IMAP™ IKKβ assay kit (manufactured by Molecular Devices Corporation, catalogue No. R8115) or IMAP™ FP Screening Express kit (manufactured by Molecular Devices Corporation, catalogue No. R8127) and in accordance with the protocol attached to each kit. The specific methods are described below. (Preparation of Reagents)
1) Complete Reaction Buffer: a complete reaction buffer was so prepared as to obtain a final concentration of 10 mM Tris-HCL (pH 7.2), 10 mM magnesium chloride, 0.1% bovine serum albumin, and 1 mM dithiothreitol.
2) Substrate Working Solution: 400 nM of a substrate working solution was prepared by dissolving and diluting a fluorescein-labeled IKKβ substrate peptide (amino acid sequence: GRHDSGLDSMK) with the complete reaction buffer.
3) Enzyme Working Solution: 0.2 units/mL of an enzyme working solution was prepared by diluting IKKβ solution (manufactured by Upstate Biotechnology Inc., catalogue No. 14-485) with the complete reaction buffer.
4) ATP Working Solution: 8 μM of an ATP working solution was prepared by dissolving ATP into ultrapure water followed by diluting it with the complete reaction buffer.
5) IMAP binding solution: After diluting an IMAP binding buffer with ultrapure water, an IMAP binding solution was prepared by diluting an IMAP binding reagent with the diluted IMAP binding buffer.
A test compound was dissolved in dimethylsulfoxide followed by diluting it with the complete reaction buffer to prepare 4 μM of a test compound solution.
1) To a 384-well plate, the test compound solution, the enzyme working solution, the substrate working solution, and the ATP working solution were added in an amount of 5 μL per well.
2) Incubation was performed at a room temperature for 60 minutes under light shielding.
3) The IMAP binding solution was added in an amount of 60 μL per well.
4) Incubation was performed at a room temperature for 30 minutes under light shielding.
5) Fluorescence polarization value of each well was measured by using Analyst™ HT (multimode plate reader manufactured by Molecular Devices Corporation) and Criterion Host Software v2.00 (manufactured by Molecular Devices Corporation).
6) Operations were performed in the same manner as in 1) to 5) except for changing the test compound to 0.4% dimethylsulfoxide. The obtained result was designated as a control.
7) Operations were performed in the same manner as in 1) to 5) except for changing the test compound and the enzyme working solution to 0.4% dimethylsulfoxide and the complete reaction buffer, respectively. The obtained result was designated as a background.
An IKKβ inhibition rate (%) was calculated by the following equation.
IKKβ inhibition rate (%)=100×{1−(fluorescence polarization value of test compound−fluorescence polarization value of background)/(fluorescence polarization value of control−fluorescence polarization value of background)}

inhibition at 1 µM [%]	Compound
97	NC(=O)Nc1[nH]c2cc(-c3cccc(CCO)c3)ccc2c1C(N)=O [Compound 7-5]
98	NC(=O)Nc1[nH]c2cc(-c3ccncc3)ccc2c1C(N)=O [Compound 7-9]
100	COc1cc(-c2ccc3c(C(N)=O)c(NC(N)=O)[nH]c3c2)ccc1CO [Compound 7-14]
98	NC(=O)Nc1[nH]c2cc(-c3ccnc(Cl)c3)ccc2c1C(N)=O [Compound 7-26]
100	C[C@@H](O)c1cccc(-c2ccc3c(C(N)=O)c(NC(N)=O)[nH]c3c2)c1 [Compound 7-44]
98	C[C@H](O)c1cccc(-c2ccc3c(C(N)=O)c(NC(N)=O)[nH]c3c2)c1 [Compound 7-45]
100	NCc1ccc(-c2ccc3c(C(N)=O)c(NC(N)=O)[nH]c3c2)cc1 [Compound 8-3]
100	CC(N)c1ccc(-c2ccc3c(C(N)=O)c(NC(N)=O)[nH]c3c2)cc1 (stereo not drawn) [Compound 8-5]
99	CC(C)(N)c1ccc(-c2ccc3c(C(N)=O)c(NC(N)=O)[nH]c3c2)cc1 [Compound 8-6]
87	NC(=O)Nc1[nH]c2cc(C#Cc3ccccc3)ccc2c1C(N)=O [Compound 9-1, 2-Aminocarbonylamino-6-phenylethynylindole-3-carboxamide]
95	NC(=O)Nc1[nH]c2cc(C#CCO)ccc2c1C(N)=O [Compound 9-2, 2-Aminocarbonylamino-6-(3-hydroxy-1-propynyl) indole-3-carboxamide]
94	CN(C)CC#Cc1ccc2c(C(N)=O)c(NC(N)=O)[nH]c2c1 [Compound 9-18, 2-Aminocarbonylamino-6-(3-dimethylamino-1-propynyl) indole-3-carboxamide]
100	C#Cc1ccc2c(C(N)=O)c(NC(N)=O)[nH]c2c1 [Compound 10-1, 2-aminocarbonylamino-6-ethynylindole-3-carboxamide]
95	CCc1ccc2c(C(N)=O)c(NC(N)=O)[nH]c2c1 [Compound 11-1, 2-Aminocarbonylamino-6-ethylindole-3-carboxamide]
100	NC(=O)Nc1[nH]c2cc(C3CCCCC3)ccc2c1C(N)=O [Compound 11-4, 2-Aminocarbonylamino-6-cyclohexylindole-3-carboxamide]
98	NC(=O)Nc1[nH]c2cc(CCCCO)ccc2c1C(N)=O [Compound 11-6, 2-Aminocarbonylamino-6-(4-hydroxybutyl)indole-3-carboxamide]
95	CN(C)CCCc1ccc2c(C(N)=O)c(NC(N)=O)[nH]c2c1 [Compound 11-8, 2-Aminocarbonylamino-6-(3-dimethylaminopropyl) indole-3-carboxamide]
94	COCCCc1ccc2c(C(N)=O)c(NC(N)=O)[nH]c2c1 [Compound 11-10, 2-Aminocarbonylamino-6-(3-methoxypropyl)indole-3-carboxamide]
100	NC(=O)Nc1[nH]c2cc(-c3cccc(CO)c3)ccc2c1C(N)=O [Compound 12-1, 2-aminocarbonylamino-6-(3-hydroxymethylphenyl)indole-3-carboxamide]
99	NC(=O)Nc1[nH]c2cc(-c3ccc(CO)o3)ccc2c1C(N)=O [Compound 12-2, 2-Aminocarbonylamino-6-(5-hydroxymethylfuran-2-yl) indole-3-carboxamide]
100	CC(C)NCc1cccc(-c2ccc3c(C(N)=O)c(NC(N)=O)[nH]c3c2)c1 [Compound 13-5, 2-Aminocarbonylamino-6-(3-isopropylaminomethylphenyl) indole-3-carboxamide]
100	NC(=O)Nc1[nH]c2cc(-c3cccc(CNCCO)c3)ccc2c1C(N)=O [Compound 13-13, 2-Aminocarbonylamino-6-[3-(2-hydroxyethylaminomethyl)phenyl]indole-3-carboxamide]
100	NC(=O)Nc1[nH]c2cc(-c3ccc(CNC4CC4)o3)ccc2c1C(N)=O [Compound 13-15, 2-Aminocarbonylamino-6-(5-cyclopropylaminomethylfuran-2-yl)indole-3-carboxamide]
98	CNCc1ccc(-c2ccc3c(C(N)=O)c(NC(N)=O)[nH]c3c2)s1 [Compound 13-24, 2-Aminocarbonylamino-6-(5-methylaminomethylthiophen-2-yl)indole-3-carboxamide]
78	NC(=O)Nc1[nH]c2cc(CO)ccc2c1C(N)=O [Compound 16-1, 2-Aminocarbonylamino-6-hydroxymethylindole-3-carboxamide]
100	NC(=O)Nc1[nH]c2cc(C3SCCS3)ccc2c1C(N)=O [Compound 20-1, 2-Aminocarbonylamino-6-(1,3-dithiolan-2-yl)indole-3-carboxamide]
70	NC(=O)Nc1[nH]c2cc(C(=O)N3CCCC3)ccc2c1C(N)=O [Compound 22-2]
100	NC(=O)Nc1[nH]c2cc(C(=O)NCc3ccccc3)ccc2c1C(N)=O [Compound 22-9]
100	NC(=O)Nc1[nH]c2cc(CN3CCCC3)ccc2c1C(N)=O [Compound 24-2]
100	CCSCc1ccc2c(C(N)=O)c(NC(N)=O)[nH]c2c1 [Compound 25-3]
